Source: paper PMC7773887 (Computational and Structural Biotechnology Journal, 2020)

Assays:
CMY-10 = CMY-10 (Klebsiella aerogenes, UniProt Q99QC1); test: nitrocefin hydrolysis assay at […] inhibitor; format: biochemical; conditions: read-out: % inhibition at 200 μM
AmpC BER = AmpC BER (Escherichia coli, UniProt A7TUE6); test: nitrocefin hydrolysis steady-state kinetics, Lineweaver-Burk; format: biochemical
Chain of AmpC BER (A7TUE6 20-379): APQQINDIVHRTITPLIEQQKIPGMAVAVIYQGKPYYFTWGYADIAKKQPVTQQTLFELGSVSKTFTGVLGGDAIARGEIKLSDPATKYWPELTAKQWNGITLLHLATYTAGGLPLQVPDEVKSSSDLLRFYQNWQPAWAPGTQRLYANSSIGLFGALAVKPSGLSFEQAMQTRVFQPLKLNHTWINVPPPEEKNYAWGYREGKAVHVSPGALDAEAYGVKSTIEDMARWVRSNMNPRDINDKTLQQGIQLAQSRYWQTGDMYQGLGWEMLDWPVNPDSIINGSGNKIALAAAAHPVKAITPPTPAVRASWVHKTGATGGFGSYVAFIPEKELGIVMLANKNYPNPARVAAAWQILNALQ

Chain of CMY-10 (Q99QC1 24-382): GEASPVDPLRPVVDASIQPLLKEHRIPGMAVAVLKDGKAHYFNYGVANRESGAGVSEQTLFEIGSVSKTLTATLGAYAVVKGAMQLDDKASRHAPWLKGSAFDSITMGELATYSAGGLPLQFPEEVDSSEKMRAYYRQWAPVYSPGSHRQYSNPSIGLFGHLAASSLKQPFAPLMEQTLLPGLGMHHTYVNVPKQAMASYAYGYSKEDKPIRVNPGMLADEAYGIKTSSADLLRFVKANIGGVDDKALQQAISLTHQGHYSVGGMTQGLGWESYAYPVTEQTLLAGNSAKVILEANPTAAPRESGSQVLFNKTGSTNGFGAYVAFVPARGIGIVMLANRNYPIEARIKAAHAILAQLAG

C=C1CCC[C@@H]2[C@@](C)(CCC(CCCc3ccoc3)COS(=O)(=O)O)[C@H](C)CC[C@]12C (some centres unmarked) [Hali 5, halisulfate 5]
inhibition at 200 µM (CMY-10): ~90%
Ki (AmpC BER): 5.87 µM
